Measurements published in paper PMC3967213, “Cyclic Marinopyrrole Derivatives as Disruptors of Mcl-1 and Bcl-xL Binding to Bim” (Marine Drugs, 2014).
Entries after “also recorded” stand apart in the source; their conditions may differ. Read-outs that look alike come from different tables or passages of the source.

How the values were obtained:
[1] = biological target: GST-Mcl-1 / biotinylated Bim BH3 peptide (Homo sapiens, UniProt Q07820); assay: ELISA, disruption of Mcl-1 binding to Bim; conditions: for fold potency relative to 1 against Mcl-1/Bim: compared with 1
Sequence of GST-Mcl-1 / biotinylated Bim BH3 peptide (Q07820 whole entry): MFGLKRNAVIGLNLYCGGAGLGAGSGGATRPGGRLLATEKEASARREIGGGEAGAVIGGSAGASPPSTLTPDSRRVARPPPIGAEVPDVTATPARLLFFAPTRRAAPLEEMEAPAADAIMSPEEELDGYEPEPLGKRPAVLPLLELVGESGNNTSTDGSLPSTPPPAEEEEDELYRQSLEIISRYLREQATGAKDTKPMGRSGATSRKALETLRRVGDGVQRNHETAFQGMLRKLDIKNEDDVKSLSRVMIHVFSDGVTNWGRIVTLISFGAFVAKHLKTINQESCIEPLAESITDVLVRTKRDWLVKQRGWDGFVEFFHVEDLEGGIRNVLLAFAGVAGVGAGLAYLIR
Method: (§1) ELISAs were performed using a similar procedure as previously described. Briefly, 40 nM of biotinylated Bim BH3 peptide (Biomatik, Wilmington, DE, USA) in SuperBlock blocking buffer (Thermo Scientific Pierce, Rockford, IL, USA) was incubated in high-binding capacity streptavidin-coated plates (Thermo Scientific Pierce, Rockford, IL, USA) for 2 h. Compounds were diluted in 120 µL of PBS containing 10 nM of GST-Mcl-1 or GST-Bcl-xL in 1.5-mL tubes for 15 min. Wells were washed with wash buffer (PBS containing 0.05% Tween-20) and then 100 µL of the compound/GST-protein mixture was transferred to the wells. The plates were incubated for 2 h, and then, the wells were washed with wash buffer. HRP-conjugated anti-GST antibody (Bethyl Laboratories, Montgomery, TX, USA) was diluted 1:2000 in SuperBlock, and 100 µL were transferred to each well. The plate was incubated for 1 h, and then, the wells were washed with wash buffer followed by PBS. One hundred microliters of SureBlue TMB Microwell Peroxidase Substrate (VWR International, Radnor, PA, USA) was added to each well, and the plates were developed for 5–10 min. One hundred microliters of 1 N HCl was added to each well to stop the reaction, and the absorbance was read at 450 nm using a µQuant plate reader (Bio-Tek Instruments, Winooski, VT, USA).

[2] = biological target: GST-Bcl-xL / biotinylated Bim BH3 peptide (Homo sapiens, UniProt Q07817); assay: ELISA, disruption of Bcl-xL binding to Bim; conditions: for IC50: 10 nM GST-Bcl-xL, 40 nM biotinylated Bim BH3 peptide, read-out: IC50 against Bcl-xL/Bim binding; for fold potency relative to 1 against Bcl-xL/Bim: compared with 1
Sequence of GST-Bcl-xL / biotinylated Bim BH3 peptide (Q07817 whole entry): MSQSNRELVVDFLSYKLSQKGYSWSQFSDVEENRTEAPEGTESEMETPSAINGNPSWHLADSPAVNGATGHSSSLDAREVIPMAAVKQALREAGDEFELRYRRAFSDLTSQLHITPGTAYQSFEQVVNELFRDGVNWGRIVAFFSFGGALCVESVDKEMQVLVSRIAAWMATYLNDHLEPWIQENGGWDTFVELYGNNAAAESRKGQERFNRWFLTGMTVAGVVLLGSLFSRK
Method: as §1

[3] = tested on: Mcl-1, Bim and caspase 3 in MDA-MB-468 cells; assay: Western blotting after treatment of intact human breast cancer cells; type: cell-based; conditions: 10 μM for 16 h

Q: Which IC50 ([1]; ELISA, 10 nM GST-Mcl-1, 40 nM biotinylated Bim BH3 peptide, read-out: IC50 to disrupt the binding of Mcl-1 to Bim) does the source give for CCOP(=O)(OCC)c1ccc(C(=O)c2cc(Cl)c3n2-c2c([nH]c(Cl)c2Cl)C(=O)c2ccc(P(=O)(OCC)OCC)cc2O3)c(O)c1 [Compound 5, 3-Hydroxy-4-(2,3,7-trichloro-13-oxo-10-(diethylphosphonyl)-1,13-dihydrobenzo[g]dipyrrolo[2,1-b:3′,2′-d][1,3]oxazocine-5-carbonyl)diethyl phosphonate] here?
A: Its IC50 is greater than 100 µM.

Q: And the IC50 [2]?
A: Its IC50 is greater than 100 µM.

Q: With O=C(O)c1ccc(C(=O)c2[nH]c(Cl)c(Cl)c2-n2c(C(=O)c3ccc(C(=O)O)cc3O)cc(Cl)c2Cl)c(O)c1 [Compound 7a, 4,4′-(4,4′,5,5′-Tetrachloro-1′H-[1,3′-bipyrrole]-2,2′-dicarbonyl)bis(3-hydroxybenzoic acid)] as the compound, how does the “activity against Mcl-1/Bim (in words)” value ([1]; ELISA) read?
A: The value was “lower activity than 1; also recorded: less active”.

Q: What about the “activity against Bcl-xL/Bim (in words)” value [2] of the same compound?
A: The value was “little activity; also recorded: less active”.

Q: And the “cleavage of caspase 3” value [3]?
A: The value was “little caspase 3 cleavage”.

Q: What about the “levels of Mcl-1 and Bim” value [3] of the same compound?
A: Its value is “did not decrease”.

Q: What about the melting point of the same compound?
A: The melting point was 190.5 to 192 °C.

Q: What does the source list for O=C(c1ccc(P(=O)(O)O)cc1O)c1[nH]c(Cl)c(Cl)c1-n1c(C(=O)c2ccc(P(=O)(O)O)cc2O)cc(Cl)c1Cl [Compound 8a, ((4,4′,5,5′-Tetrachloro-1′H-[1,3′-bipyrrole]-2,2′-dicarbonyl)bis(3-hydroxy-4,1-phenylene))diphosphonic acid]?
A: activity against Mcl-1/Bim (in words) ([1]; ELISA): slightly less potent than 1; also recorded: less active; activity against Bcl-xL/Bim (in words) [2]: less active; cleavage of caspase 3 [3]: little effect; levels of Mcl-1 and Bim [3]: little effect

Q: With O=C(c1ccccc1O)c1[nH]c(Cl)c(Cl)c1-n1c(C(=O)c2ccccc2O)cc(Cl)c1Cl (racemic) [Compound 1, (±)-marinopyrrole A, reference compound] as the compound, how does the IC50 [1] read?
A: The IC50 was 8.9 µM.

Q: And the “cleavage of caspase 3” value [3]?
A: The value was “cleave caspase 3”.

Q: What about the “levels of Mcl-1 and Bim” value [3] of the same compound?
A: The value was “able to decrease”.

Q: With COC(=O)c1ccc(C(=O)c2cc(Cl)c3n2-c2c([nH]c(Cl)c2Cl)C(=O)c2ccc(C(=O)OC)cc2O3)c(O)c1 [Compound 4, Methyl-2,3,7-trichloro-5-(2-hydroxy-4-(methoxycarbonyl)benzoyl)-13-oxo-1,13-dihydrobenzo[g]-dipyrrolo[2,1-b:3′,2′-d][1,3]oxazocine-10-carboxylate] as the compound, how does the “fold potency relative to 1 against Mcl-1/Bim” value ([1]; ELISA) read?
A: The value was “two-fold more potent”.

Q: And the “fold potency relative to 1 against Bcl-xL/Bim” value [2]?
A: Its value is “seven-fold more potent”.

Q: With COC(=O)c1ccc(C(=O)c2[nH]c(Cl)c(Cl)c2-n2c(C(=O)c3ccc(C(=O)OC)cc3O)cc(Cl)c2Cl)c(O)c1 [Compound 4a, dimethyl-4,4′-(4,4′,5,5′-tetrachloro-1′H-[1,3′-bipyrrole]-2,2′-dicarbonyl)bis(3-hydroxybenzoate)] as the compound, how does the “activity against Mcl-1/Bim (in words)” value ([1]; ELISA) read?
A: The value was “showed activity”.

Q: What about the “cleavage of caspase 3” value [3] of the same compound?
A: The value was “cleavage of caspase 3”.

Q: What about the “levels of Mcl-1 and Bim” value [3] of the same compound?
A: The value was “significant decrease”.

Q: With CCOP(=O)(OCC)c1ccc(C(=O)c2[nH]c(Cl)c(Cl)c2-n2c(C(=O)c3ccc(P(=O)(OCC)OCC)cc3O)cc(Cl)c2Cl)c(O)c1 [Compound 5a, tetraethyl((4,4′,5,5′-tetrachloro-1′H-[1,3′-bipyrrole]-2,2′-dicarbonyl)bis(3-hydroxy-4,1-phenylene))bis(phosphonate)] as the compound, how does the “activity against Mcl-1/Bim (in words)” value ([1]; ELISA) read?
A: Its value is “showed activity”.

Q: And the IC50 [2]?
A: Its IC50 is greater than 100 µM.

Q: And the “cleavage of caspase 3” value [3]?
A: Its value is “little effect”.

Q: And the “levels of Mcl-1 and Bim” value [3]?
A: Its value is “little effect”.

Q: For O=C1c2ccc(OS(=O)(=O)C(F)(F)F)cc2Oc2c(Cl)cc(C(=O)c3ccc(OS(=O)(=O)C(F)(F)F)cc3O)n2-c2c1[nH]c(Cl)c2Cl [Compound 3, 3-Hydroxy-4-(2,3,7-trichloro-13-oxo-10-(((trifluoromethyl)sulfonyl)oxy)-1,13 dihydrobenzo[g]di-pyrrolo[2,1-b:3′,2′-d][1,3]oxazocine-5-carbonyl)phenyl trifluoromethanesulfonate], which “fold potency relative to 1 against Mcl-1/Bim” value ([1]; ELISA) is on record?
A: The value was “six”.

Q: And the “fold potency relative to 1 against Bcl-xL/Bim” value [2]?
A: The value was “seven-fold higher potency”.
